Experimental data as given in publication PMC10269487, “Plasmodium Parasite Malate-Quinone Oxidoreductase Functionally Complements a Yeast Deletion Mutant of Mitochondrial Malate Dehydrogenase” (Microbiology Spectrum, 2023).

Key:
[1] = target: T1, malate-quinone oxidoreductase (PfMQO) (Plasmodium falciparum, UniProt C6KT09); assay: malate:dUQ/DCIP reductase activity in mitochondrial fraction of PfMQO-expressing yeast, with ΔMdh1 as negative control; assay type: biochemical
T1 construct: gene PF3D7_0616800; native full-length PfMQO from codon-optimized cDNA, expressed in ΔMdh1 yeast mitochondria
T1 sequence (C6KT09 1-521): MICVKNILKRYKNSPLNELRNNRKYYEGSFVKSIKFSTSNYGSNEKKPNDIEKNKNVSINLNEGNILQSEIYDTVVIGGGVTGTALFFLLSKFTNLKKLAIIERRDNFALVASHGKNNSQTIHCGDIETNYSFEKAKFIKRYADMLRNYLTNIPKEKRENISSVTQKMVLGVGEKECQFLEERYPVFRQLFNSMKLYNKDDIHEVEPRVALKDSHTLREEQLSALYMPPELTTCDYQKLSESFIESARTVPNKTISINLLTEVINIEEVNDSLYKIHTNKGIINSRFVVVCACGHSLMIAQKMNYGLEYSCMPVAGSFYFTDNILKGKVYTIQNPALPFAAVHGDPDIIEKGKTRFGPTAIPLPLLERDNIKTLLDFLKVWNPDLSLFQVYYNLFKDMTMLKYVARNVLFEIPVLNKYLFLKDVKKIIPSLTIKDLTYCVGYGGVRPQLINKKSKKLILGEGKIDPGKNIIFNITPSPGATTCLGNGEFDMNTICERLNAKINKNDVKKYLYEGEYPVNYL

[2] = target: T2, yeast succinate dehydrogenase (Saccharomyces cerevisiae, UniProt P21801+P33421+P37298+Q00711); assay: inhibition of yeast succinate dehydrogenase activity (Fig. S2); assay type: cell-based
T2 construct: gene SDH1
T2 sequence (Q00711 29-640): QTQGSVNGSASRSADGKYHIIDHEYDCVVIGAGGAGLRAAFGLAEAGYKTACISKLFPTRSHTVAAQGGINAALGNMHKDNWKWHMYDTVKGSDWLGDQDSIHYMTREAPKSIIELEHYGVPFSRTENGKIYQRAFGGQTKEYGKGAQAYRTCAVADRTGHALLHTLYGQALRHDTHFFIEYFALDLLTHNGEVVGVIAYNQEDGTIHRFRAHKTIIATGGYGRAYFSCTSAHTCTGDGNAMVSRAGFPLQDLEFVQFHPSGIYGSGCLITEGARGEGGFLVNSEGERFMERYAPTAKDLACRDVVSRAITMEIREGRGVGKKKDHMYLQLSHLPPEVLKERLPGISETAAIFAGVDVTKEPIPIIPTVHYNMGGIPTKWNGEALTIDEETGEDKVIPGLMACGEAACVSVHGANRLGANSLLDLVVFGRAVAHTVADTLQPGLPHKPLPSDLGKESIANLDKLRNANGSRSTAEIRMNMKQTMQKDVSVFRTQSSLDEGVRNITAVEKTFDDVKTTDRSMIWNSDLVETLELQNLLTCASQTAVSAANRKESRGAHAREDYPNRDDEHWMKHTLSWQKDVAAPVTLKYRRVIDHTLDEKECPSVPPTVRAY
T2 sequence (P21801 21-266): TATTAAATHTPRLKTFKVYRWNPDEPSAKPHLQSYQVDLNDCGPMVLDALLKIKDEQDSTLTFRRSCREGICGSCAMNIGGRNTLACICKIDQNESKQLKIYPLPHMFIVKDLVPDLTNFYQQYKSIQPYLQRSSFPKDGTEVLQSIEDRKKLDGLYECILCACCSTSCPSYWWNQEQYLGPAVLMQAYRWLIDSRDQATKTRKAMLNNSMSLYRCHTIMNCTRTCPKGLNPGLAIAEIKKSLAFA
T2 sequence (P33421 51-198): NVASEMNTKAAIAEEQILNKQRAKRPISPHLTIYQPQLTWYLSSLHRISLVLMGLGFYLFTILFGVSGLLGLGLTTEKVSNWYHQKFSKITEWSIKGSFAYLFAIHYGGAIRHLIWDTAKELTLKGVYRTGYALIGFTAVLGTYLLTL
T2 sequence (P37298 32-181): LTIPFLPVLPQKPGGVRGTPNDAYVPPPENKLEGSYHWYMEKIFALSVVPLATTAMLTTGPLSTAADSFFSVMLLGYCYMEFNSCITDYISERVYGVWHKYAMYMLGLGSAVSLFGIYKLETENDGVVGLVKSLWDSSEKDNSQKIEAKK

CC(C)=CCC/C(C)=C/CC/C(C)=C/Cc1c(O)c2ccccc2oc1=O [ferulenol]
malate:dUQ/DCIP reductase activity in mitochondrial fraction of PfMQO-expressing [1]: almost completely suppressed by 1
IC50 [2]: ~100 nM
